Reference: patent US11214803B2, “Modulators of YAP1 expression” (Ionis Pharmaceuticals, Inc., priority 2019, dated 2022)
Strand notation (5' to 3'): a small letter for the sugar, then the base; units joined by * are phosphorothioate-linked, units joined directly phosphodiester-linked; [ ] holds rarer units or linkages, { } end groups; capitals alone tell only the bases. k = constrained ethyl (cEt); [5mC] = 5-methylcytosine; d = 2'-deoxy (DNA)

Columns and labels:
Yap1 mRNA [1] = experiment: Antisense inhibition of human Yap1 in A-431 cells by cEt gapmers, single dose (Example 3, RTS36584); type: cell-based
Summary of the method: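 Read-out is Yap1 mRNA as percent of untreated control, by quantitative RT-PCR normalized to total RNA (RiboGreen). Cells (A-431) received 2,000 nM of 3-10-3 cEt phosphorothioate gapmer via free uptake for roughly 48 hours.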

Yap1 mRNA [2] = experiment: Dose-dependent inhibition of human Yap1 in A-431 cells (Example 8, 10,000 cells per well, RTS4814); type: cell-based; settings: for % UTC (Yap1 mRNA) / IC50: A-431 cells; for Yap1 mRNA, % UTC: A-431 cells, 10,000 cells per well
Summary of the method: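 Yap1 mRNA, normalized to RIBOGREEN total RNA and expressed as % untreated control, was read with RTS4814 about 48 h after free-uptake oligonucleotide treatment of A-431 cells at 10,000 cells/well. IC50 derived by linear regression of log/linear data.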

[3] = Table 35, Yap1 mRNA as percent of untreated control, 3-10-3 cEt gapmers targeting SEQ ID NO: 1 and 2, single dose
[4] = Table 27, Yap1 mRNA by 3-10-3 cEt gapmers targeting SEQ ID NO.: 1, and 2, percent of untreated control
[5] = 31.3 nM, free uptake, approximately 48 hours, RTS4814
[6] = 125.0 nM, free uptake, approximately 48 hours, RTS4814
[7] = 500.0 nM, free uptake, approximately 48 hours, RTS4814
[8] = 2000.00 nM, free uptake, approximately 48 hours, RTS4814
[9] = free uptake, approximately 48 hours, RTS4814, linear regression on log/linear plot
[10] = Table 34, Yap1 mRNA as percent of untreated control, 3-10-3 cEt gapmers targeting SEQ ID NO: 1 and 2, single dose
[11] = Table 29, Yap1 mRNA as percent of untreated control, 3-10-3 cEt gapmers targeting SEQ ID NO.: 1, and 2
[12] = Table 26, Yap1 mRNA by 3-10-3 cEt gapmers targeting SEQ ID NO.: 1, and 2, percent of untreated control
[13] = Table 28, Yap1 mRNA as percent of untreated control, 3-10-3 cEt gapmers targeting SEQ ID NO.: 1, and 2

| Substance | YAP1 (% UTC) (Yap1 mRNA [1]; [3]) | % UTC (Yap1 mRNA) (Yap1 mRNA [2]; 31.3 nM) | % UTC (Yap1 mRNA) (Yap1 mRNA [2]; 125.0 nM) | % UTC (Yap1 mRNA) (Yap1 mRNA [2]; 500.0 nM) | % UTC (Yap1 mRNA) (Yap1 mRNA [2]; 2000.00 nM) | IC50 (Yap1 mRNA [2]; Yap1 mRNA) | YAP1 (% UTC) (Yap1 mRNA [1]; [4]) | Yap1 mRNA, % UTC (Yap1 mRNA [2]; [5]) | Yap1 mRNA, % UTC (Yap1 mRNA [2]; [6]) | Yap1 mRNA, % UTC (Yap1 mRNA [2]; [7]) | Yap1 mRNA, % UTC (Yap1 mRNA [2]; [8]) | IC50 (Yap1 mRNA [2]; [9]) | YAP1 (% UTC) (Yap1 mRNA [1]; [10]) | YAP1 (% UTC) (Yap1 mRNA [1]; [11]) | YAP1 (% UTC) (Yap1 mRNA [1]; [12]) | YAP1 (% UTC) (Yap1 mRNA [1]; [13]) |
| --- | --- | --- | --- | --- | --- | --- | --- | --- | --- | --- | --- | --- | --- | --- | --- | --- |
| 1075701 (kA*kA*kT*dT*dA*d[5mC]*dT*dA*dG*dA*dG*dG*d[5mC]*kT*kT*k[5mC]; antisense) [compound 1075701] | 3 % UTC | 84 % UTC | 34 % UTC | 11 % UTC | 6 % UTC | 100 nM | – | – | – | – | – | – | – | – | – | – |
| 1074221 (antisense kG*kA*kA*dT*dG*dA*dG*d[5mC]*dT*d[5mC]*dG*dA*dA*k[5mC]*kA*kT) [compound 1074221] | – | – | – | – | – | – | 6 % UTC | 75 % UTC | 38 % UTC | 14 % UTC | 7 % UTC | 100 nM | – | – | – | – |
| 1074421 (kT*kG*kA*dT*dT*d[5mC]*dT*dT*dT*dA*dG*dA*dG*k[5mC]*k[5mC]*kA; antisense) [compound 1074421] | 3 % UTC | 61 % UTC | 29 % UTC | 8 % UTC | 5 % UTC | 40 nM | – | – | – | – | – | – | – | – | – | – |
| 1074484 (kT*k[5mC]*kA*d[5mC]*dT*dA*dA*dT*dA*dT*dG*dG*dT*k[5mC]*kA*kT; antisense) [compound 1074484] | – | – | – | – | – | – | – | 43 % UTC | 12 % UTC | 5 % UTC | 3 % UTC | < 20 nM | 3 % UTC | – | – | – |
| 1076340 (antisense kT*kA*kA*dT*dA*dT*d[5mC]*d[5mC]*dT*d[5mC]*dA*dT*d[5mC]*kA*kG*k[5mC]) [compound 1076340] | – | 79 % UTC | 42 % UTC | 17 % UTC | 11 % UTC | 100 nM | – | – | – | – | – | – | 8 % UTC | – | – | – |
| 1075855 (antisense kG*kA*kT*dT*dT*dT*dT*dA*dG*dG*d[5mC]*dA*dG*kA*k[5mC]*kG) [compound 1075855] | – | – | – | – | – | – | – | 65 % UTC | 30 % UTC | 12 % UTC | 8 % UTC | 100 nM | – | 7 % UTC | – | – |
| 1075053 (antisense kA*kA*kT*dA*dT*dA*dT*dA*d[5mC]*dT*dT*dG*dA*kT*k[5mC]*k[5mC]) [compound 1075053] | – | – | – | – | – | – | 4 % UTC | 61 % UTC | 24 % UTC | 8 % UTC | 5 % UTC | 40 nM | – | – | – | – |
| 1075061 (antisense k[5mC]*k[5mC]*kT*dT*dA*dT*dA*d[5mC]*dT*dT*dT*dT*dA*kG*k[5mC]*k[5mC]) [compound 1075061] | 5 % UTC | 58 % UTC | 23 % UTC | 9 % UTC | 6 % UTC | < 20 nM | – | – | – | – | – | – | – | – | – | – |
| 1076015 (kA*kT*kT*dT*dA*dG*dT*dT*dG*dG*dT*dT*dG*kT*kT*kA; antisense) [compound 1076015] | – | – | – | – | – | – | – | 70 % UTC | 37 % UTC | 15 % UTC | 9 % UTC | 100 nM | – | 8 % UTC | – | – |
| 1074452 (kT*kG*kA*d[5mC]*dT*dA*dA*dT*dG*dA*dT*dA*dG*k[5mC]*kA*k[5mC]; antisense) [compound 1074452] | – | 88 % UTC | 28 % UTC | 9 % UTC | 5 % UTC | 100 nM | – | – | – | – | – | – | 3 % UTC | – | – | – |
| 1076397 (antisense kA*kA*k[5mC]*d[5mC]*dT*dA*dT*dA*dT*dT*dT*dG*dA*kG*k[5mC]*k[5mC]) [compound 1076397] | – | – | – | – | – | – | 4 % UTC | 43 % UTC | 14 % UTC | 5 % UTC | 4 % UTC | < 20 nM | – | – | – | – |
| 1074229 (antisense kG*kA*kA*dG*dA*d[5mC]*dT*dG*dT*d[5mC]*dG*dA*dA*kG*kA*kT) [compound 1074229] | 5 % UTC | 58 % UTC | 24 % UTC | 9 % UTC | 5 % UTC | < 20 nM | – | – | – | – | – | – | – | – | – | – |
| 1074508 (kG*kA*kG*dA*dG*dA*dG*d[5mC]*dA*dG*dA*dT*dA*kA*kT*k[5mC]; antisense) [compound 1074508] | – | – | – | – | – | – | – | 62 % UTC | 30 % UTC | 14 % UTC | 8 % UTC | 50 nM | – | – | 7 % UTC | – |
| 1074446 (kA*kT*kG*dA*dT*dA*dG*d[5mC]*dA*d[5mC]*dT*dA*dG*kG*kA*kG; antisense) [compound 1074446] | – | – | – | – | – | – | – | 39 % UTC | 11 % UTC | 5 % UTC | 3 % UTC | < 20 nM | – | – | – | 3 % UTC |
| 1074414 (kA*kA*k[5mC]*dT*dG*dT*dG*dA*dA*dA*dG*dA*dG*kG*kT*k[5mC]; antisense) [compound 1074414] | – | – | – | – | – | – | – | 64 % UTC | 34 % UTC | 14 % UTC | 7 % UTC | 100 nM | – | – | – | 6 % UTC |
| 1075246 (kG*kA*kT*dA*dA*d[5mC]*dT*dA*dG*dT*dA*dA*d[5mC]*k[5mC]*kG*kT; antisense) [compound 1075246] | – | – | – | – | – | – | – | 70 % UTC | 34 % UTC | 12 % UTC | 6 % UTC | 100 nM | – | – | – | 6 % UTC |
| 1074444 (kA*k[5mC]*kA*dT*dT*dT*dT*dT*dG*dG*d[5mC]*dT*dT*kG*kT*k[5mC]; antisense) [compound 1074444] | – | – | – | – | – | – | – | 49 % UTC | 21 % UTC | 7 % UTC | 4 % UTC | < 20 nM | – | – | 3 % UTC | – |
| 1076527 (kG*k[5mC]*kA*d[5mC]*dA*dA*d[5mC]*d[5mC]*dT*dT*dA*d[5mC]*dA*kT*kT*kT; antisense) [compound 1076527] | – | – | – | – | – | – | – | 81 % UTC | 41 % UTC | 16 % UTC | 8 % UTC | 100 nM | – | 6 % UTC | – | – |
| 1075093 (k[5mC]*kA*kA*dA*dG*dT*dA*dA*dG*dG*dT*dA*dT*kG*kA*kG; antisense) [compound 1075093] | 3 % UTC | 74 % UTC | 26 % UTC | 7 % UTC | 4 % UTC | 100 nM | – | – | – | – | – | – | – | – | – | – |
| 1074485 (kT*kT*k[5mC]*dA*d[5mC]*dT*dA*dA*dT*dA*dT*dG*dG*kT*k[5mC]*kA; antisense) [compound 1074485] | 4 % UTC | 47 % UTC | 14 % UTC | 5 % UTC | 3 % UTC | < 20 nM | – | – | – | – | – | – | – | – | – | – |
| 1076526 (kG*kT*kA*dG*dA*dA*dA*dG*dA*dT*dG*dG*d[5mC]*kT*k[5mC]*kA; antisense) [compound 1076526] | – | – | – | – | – | – | – | 44 % UTC | 9 % UTC | 3 % UTC | 2 % UTC | < 20 nM | – | – | – | 3 % UTC |
| 1076399 (antisense kG*kA*kT*dA*dA*d[5mC]*dT*dT*dA*dG*dA*dG*dA*kT*kG*kT) [compound 1076399] | – | – | – | – | – | – | – | 60 % UTC | 29 % UTC | 11 % UTC | 6 % UTC | 40 nM | – | 4 % UTC | – | – |
| 1074766 (kA*kT*k[5mC]*d[5mC]*d[5mC]*dA*dA*dT*dG*d[5mC]*dT*dA*d[5mC]*k[5mC]*k[5mC]*kA; antisense) [compound 1074766] | – | – | – | – | – | – | – | 72 % UTC | 32 % UTC | 14 % UTC | 7 % UTC | 100 nM | – | – | – | 8 % UTC |
| 1074318 (antisense kG*kG*kA*dG*dA*dA*dT*dT*dT*dG*d[5mC]*dT*dG*kT*kG*k[5mC]) [compound 1074318] | – | – | – | – | – | – | – | 48 % UTC | 12 % UTC | 6 % UTC | 4 % UTC | < 20 nM | – | – | – | 4 % UTC |
| 1074479 (k[5mC]*kA*kT*dT*dT*dG*d[5mC]*d[5mC]*dT*dA*dG*dG*dT*kT*k[5mC]*k[5mC]; antisense) [compound 1074479] | – | – | – | – | – | – | – | 23 % UTC | 8 % UTC | 4 % UTC | 4 % UTC | < 20 nM | – | 2 % UTC | – | – |
